In the CheMixHub viscosity set:
± gives the uncertainty stated by the source.

Experiment: xn = mol fraction of the nth substance listed
Details: 100 kPa

Question: With CCCCCCCCCCCCCC(=O)OCC + CCC1CCCCC1 as the compound, how does the viscosity (293.15 K, x2 = 0.0998) read?
Answer: The viscosity was 4.251 ± 0.099 mPa·s.

Question: What about the viscosity (293.15 K, x2 = 0.2) of the same compound?
Answer: Its viscosity is 3.768 ± 0.087 mPa·s.

Question: And the viscosity (293.15 K, x2 = 0.3001)?
Answer: Its viscosity is 3.305 ± 0.076 mPa·s.

Question: What about the viscosity (293.15 K, x2 = 0.4002) of the same compound?
Answer: The viscosity was 2.865 ± 0.065 mPa·s.

Question: And the viscosity (293.15 K, x2 = 0.5)?
Answer: The viscosity was 2.44 ± 0.055 mPa·s.

Question: What about the viscosity (293.15 K, x2 = 0.6) of the same compound?
Answer: Its viscosity is 2.053 ± 0.046 mPa·s.

Question: What about the viscosity (293.15 K, x2 = 0.6999) of the same compound?
Answer: The viscosity was 1.709 ± 0.038 mPa·s.

Question: What about the viscosity (293.15 K, x2 = 0.8) of the same compound?
Answer: The viscosity was 1.387 ± 0.031 mPa·s.

Question: And the viscosity (293.15 K, x2 = 0.9)?
Answer: The viscosity was 1.105 ± 0.024 mPa·s.

Question: What about the viscosity (298.15 K, x2 = 0.0998) of the same compound?
Answer: Its viscosity is 3.763 ± 0.088 mPa·s.

Question: And the viscosity (298.15 K, x2 = 0.2)?
Answer: Its viscosity is 3.351 ± 0.077 mPa·s.

Question: What about the viscosity (298.15 K, x2 = 0.3001) of the same compound?
Answer: Its viscosity is 2.962 ± 0.068 mPa·s.

Question: What about the viscosity (298.15 K, x2 = 0.4002) of the same compound?
Answer: Its viscosity is 2.582 ± 0.059 mPa·s.

Question: And the viscosity (298.15 K, x2 = 0.5)?
Answer: The viscosity was 2.221 ± 0.05 mPa·s.

Question: And the viscosity (298.15 K, x2 = 0.6)?
Answer: The viscosity was 1.88 ± 0.042 mPa·s.

Question: What about the viscosity (298.15 K, x2 = 0.6999) of the same compound?
Answer: Its viscosity is 1.572 ± 0.035 mPa·s.

Question: What about the viscosity (298.15 K, x2 = 0.8) of the same compound?
Answer: The viscosity was 1.286 ± 0.028 mPa·s.

Question: And the viscosity (298.15 K, x2 = 0.9)?
Answer: The viscosity was 1.034 ± 0.023 mPa·s.

Question: What about the viscosity (303.15 K, x2 = 0.0998) of the same compound?
Answer: Its viscosity is 3.361 ± 0.078 mPa·s.

Question: And the viscosity (303.15 K, x2 = 0.2)?
Answer: Its viscosity is 3.011 ± 0.069 mPa·s.

Question: And the viscosity (303.15 K, x2 = 0.3001)?
Answer: The viscosity was 2.672 ± 0.061 mPa·s.

Question: And the viscosity (303.15 K, x2 = 0.4002)?
Answer: Its viscosity is 2.34 ± 0.053 mPa·s.

Question: What about the viscosity (303.15 K, x2 = 0.5) of the same compound?
Answer: Its viscosity is 2.022 ± 0.046 mPa·s.

Question: What about the viscosity (303.15 K, x2 = 0.6) of the same compound?
Answer: Its viscosity is 1.726 ± 0.039 mPa·s.

Question: What about the viscosity (303.15 K, x2 = 0.6999) of the same compound?
Answer: The viscosity was 1.45 ± 0.032 mPa·s.

Question: What about the viscosity (303.15 K, x2 = 0.8) of the same compound?
Answer: Its viscosity is 1.199 ± 0.026 mPa·s.

Question: What about the viscosity (303.15 K, x2 = 0.9) of the same compound?
Answer: Its viscosity is 0.972 ± 0.021 mPa·s.

Question: What about the viscosity (308.15 K, x2 = 0.0998) of the same compound?
Answer: Its viscosity is 3.01 ± 0.07 mPa·s.

Question: And the viscosity (308.15 K, x2 = 0.2)?
Answer: Its viscosity is 2.709 ± 0.062 mPa·s.

Question: What about the viscosity (308.15 K, x2 = 0.3001) of the same compound?
Answer: The viscosity was 2.411 ± 0.055 mPa·s.

Question: What about the viscosity (308.15 K, x2 = 0.4002) of the same compound?
Answer: The viscosity was 2.12 ± 0.048 mPa·s.

Question: What about the viscosity (308.15 K, x2 = 0.5) of the same compound?
Answer: Its viscosity is 1.845 ± 0.042 mPa·s.

Question: And the viscosity (308.15 K, x2 = 0.6)?
Answer: The viscosity was 1.579 ± 0.035 mPa·s.

Question: What about the viscosity (308.15 K, x2 = 0.6999) of the same compound?
Answer: The viscosity was 1.335 ± 0.03 mPa·s.

Question: And the viscosity (308.15 K, x2 = 0.8)?
Answer: The viscosity was 1.11 ± 0.025 mPa·s.

Question: And the viscosity (308.15 K, x2 = 0.9)?
Answer: The viscosity was 0.904 ± 0.02 mPa·s.

Question: And the viscosity (313.15 K, x2 = 0.0998)?
Answer: The viscosity was 2.694 ± 0.063 mPa·s.

Question: What about the viscosity (313.15 K, x2 = 0.2) of the same compound?
Answer: The viscosity was 2.432 ± 0.056 mPa·s.

Question: And the viscosity (313.15 K, x2 = 0.3001)?
Answer: Its viscosity is 2.18 ± 0.05 mPa·s.

Question: And the viscosity (313.15 K, x2 = 0.4002)?
Answer: The viscosity was 1.925 ± 0.044 mPa·s.

Question: And the viscosity (313.15 K, x2 = 0.5)?
Answer: Its viscosity is 1.685 ± 0.038 mPa·s.

Question: And the viscosity (313.15 K, x2 = 0.6)?
Answer: Its viscosity is 1.454 ± 0.033 mPa·s.

Question: What about the viscosity (313.15 K, x2 = 0.6999) of the same compound?
Answer: The viscosity was 1.234 ± 0.027 mPa·s.

Question: And the viscosity (313.15 K, x2 = 0.8)?
Answer: Its viscosity is 1.031 ± 0.023 mPa·s.

Question: And the viscosity (313.15 K, x2 = 0.9)?
Answer: The viscosity was 0.839 ± 0.018 mPa·s.

Question: What about the viscosity (318.15 K, x2 = 0.0998) of the same compound?
Answer: The viscosity was 2.461 ± 0.057 mPa·s.

Question: And the viscosity (318.15 K, x2 = 0.2)?
Answer: The viscosity was 2.227 ± 0.051 mPa·s.

Question: And the viscosity (318.15 K, x2 = 0.3001)?
Answer: The viscosity was 2 ± 0.046 mPa·s.

Question: What about the viscosity (318.15 K, x2 = 0.4002) of the same compound?
Answer: Its viscosity is 1.775 ± 0.04 mPa·s.

Question: And the viscosity (318.15 K, x2 = 0.5)?
Answer: Its viscosity is 1.558 ± 0.035 mPa·s.

Question: What about the viscosity (318.15 K, x2 = 0.6) of the same compound?
Answer: The viscosity was 1.353 ± 0.03 mPa·s.

Question: What about the viscosity (318.15 K, x2 = 0.6999) of the same compound?
Answer: The viscosity was 1.152 ± 0.026 mPa·s.

Question: And the viscosity (318.15 K, x2 = 0.8)?
Answer: Its viscosity is 0.964 ± 0.021 mPa·s.

Question: And the viscosity (318.15 K, x2 = 0.9)?
Answer: Its viscosity is 0.791 ± 0.017 mPa·s.

Question: What about the viscosity (323.15 K, x2 = 0.0998) of the same compound?
Answer: Its viscosity is 2.242 ± 0.052 mPa·s.

Question: And the viscosity (323.15 K, x2 = 0.2)?
Answer: Its viscosity is 2.032 ± 0.047 mPa·s.

Question: What about the viscosity (323.15 K, x2 = 0.3001) of the same compound?
Answer: The viscosity was 1.829 ± 0.042 mPa·s.

Question: And the viscosity (323.15 K, x2 = 0.4002)?
Answer: Its viscosity is 1.628 ± 0.037 mPa·s.

Question: And the viscosity (323.15 K, x2 = 0.5)?
Answer: The viscosity was 1.436 ± 0.032 mPa·s.

Question: What about the viscosity (323.15 K, x2 = 0.6) of the same compound?
Answer: Its viscosity is 1.251 ± 0.028 mPa·s.

Question: And the viscosity (323.15 K, x2 = 0.6999)?
Answer: Its viscosity is 1.071 ± 0.024 mPa·s.

Question: What about the viscosity (323.15 K, x2 = 0.8) of the same compound?
Answer: The viscosity was 0.9 ± 0.02 mPa·s.

Question: What about the viscosity (323.15 K, x2 = 0.9) of the same compound?
Answer: The viscosity was 0.736 ± 0.016 mPa·s.
